# Experiments:
# ApoE/LDLR−/− mice [1] = experiment: Example 3: histological assessment of area and composition of atherosclerotic plaque in BCA, older mice; type: in vivo; conditions: eight weeks; for decrease in vessel wall area (VWA): 24-week-old mice
# Text: For the determination of atherosclerotic plaque area and composition isolated brachiocephalic artery (BCA) was dissected, fixed in 4% buffered formalin, and embedded in paraffin. 5 μm-thick serial sections of BCA were collected from the proximal to distal part of the artery. Staining with Unna's orcein combined with Martius, Scarlet and Blue trichrome (OMSB) was applied on every tenth section (50 μm interval between each section) for quantitative analysis of atherosclerotic plaques. The areas of particular components of atherosclerotic plaque as well as artery lumen and wall were determined after Columbus-based software processing (FIG. 9) using specially-designed algorithm as described in Gajda M, Jasztal A, Banasik T, Jasek-Gajda E, Chlopicki S. Combined orcein and martius scarlet blue (OMSB) staining for qualitative and quantitative analyses of atherosclerotic plaques in brachiocephalic arteries in apoE/LDLR−/− mice. Histochem Cell Biol 2017. doi:10.1007/s00418-017-1538-8. The parameters analyzed include vessel wall area (VWA), internal vessel area (IVA=plaque area+lumen area), plaque area (expressed as percent of internal wall area: plaque/IWA), and lumen area (expressed as percent of internal wall area: lumen/IWA).
# ApoE/LDLR−/− mice [2] = experiment: Example 2: nitrite and nitrate concentration in plasma (HPLC, ENO-20); type: in vivo; conditions: two months
# Method: Blood samples were collected from heart into test tubes containing additional anticoagulant and centrifuged at 1000 g for 10 min at 4° C. The samples were used for HPLC measurement of nitrate (NO3−) and nitrite (NO2−) concentrations in plasma by an ENO-20 NOx Analyzer.
# [3] = mouse, in vivo
# ApoE/LDLR−/− mice [4] = experiment: Example 3: MRI assessment of Ach response in BCA and LCA, older mice with advanced atherosclerosis; type: in vivo; conditions: low dose 0.03 mg/kg b.w/day, eight weeks, 24-week-old mice; listed as vitamin K2, 0.03 mg/kg/day
# Method: In a second part of the study, the effects of a low dose (0.03 mg/kg b.w./day) as well as a high doses (10 mg/kg b.w./day) of vitamin K2 (MK-7) on endothelial function in ApoE/LDLR−/−mice with pre-established atherosclerosis were assessed.
# Magnetic resonance imaging (MRI) experiments were performed using a 9.4T scanner (BioSpec 94/20 USR, Bruker, Germany) located in the Department of Magnetic Resonance Imaging, Institute of Nuclear Physics, Polish Academy of Sciences in Krakow. During the experiment, mice were anaesthetized using isoflurane (Aerrane, Baxter Sp. z o. o., Poland, 1.7 vol %) in an oxygen and air (1:2) mixture and imaged in the supine position. Activity of the heart, respiration, and body temperature (maintained at 37° C. using circulating warm water) were monitored using a Monitoring and Gating System (SA Inc., Stony Brook, N.Y., USA). […]
# Vasomotor response was examined by comparing two time-resolved 3D images of the vessels prior to and 25 minutes after intraperitoneal Ach administration (Sigma-Aldrich, Poznan Poland: 50 μl, 16.6 mg/kg), as well as prior to and 5 minutes after vessel occlusion. […] End-diastolic volumes of vessels were analyzed using ImageJ software 1.46r (NIH Bethesda, Md., USA) and scripts written in Matlab (MathWorks, Natick, Mass., USA). […]
# thrombin generation = experiment: Example 3: thrombin generation by calibrated automated thrombogram (CAT) in plasma; type: in vivo, mice; conditions: eight weeks
# Method: Thrombin generation was measured in platelet-poor mice plasma using calibrated automated thrombography (CAT) technique as described in Hemker H C, Giesen P, Al Dieri R, Regnault V, de Smedt E, Wagenvoord R, et al. Calibrated automated thrombin generation measurement in clotting plasma. Pathophysiol Haemost Thromb 2003; 33:4-15. doi:71636. Thrombin generation was activated by mixing 21 μL of diluted plasma (1:1 with BSA5 buffer) with 7 μIL of fluorogenic substrate (Z-Gly-Gly-Arg-AMC, 16.6 mM) and 14 μL of trigger solution containing phospholipids, tissue factor and CaCl2 (4 μM, 1 pM and 16.6 mM, respectively). In the calibration wells, the 14 μL of reagents were replaced with calibrator (102 nM). Immediately after the activation, 5 μL of the mixture was pipetted on paper disks in a flat bottom 96-well polystyrene plate and covered with 40 μL of mineral oil. Fluorescent signals were measured using the Fluoroskan Ascent software (Thermo Labsystems, Helsinki, Finland) and transformed into thrombin concentration as described in Hemker H C, Kremers R. Data management in Thrombin Generation. Thromb Res 2013; 131:3-11. doi:10.1016/j.thromres.2012.10.011. The parameters analyzed included endogenous thrombin potential (ETP), peak thrombin concentration (peak), and lag time.
smiles,measurement,setting,value
"CC(C)=CCC/C(C)=C/CC/C(C)=C/CC/C(C)=C/CC/C(C)=C/CC/C(C)=C/CC/C(C)=C/CC1=C(C)C(=O)c2ccccc2C1=O [MK-7, menaquinone-7]",lumen area expressed as percent of IWA,ApoE/LDLR−/− mice [1]; high dose 10 mg/kg b.w./day,did not change
same,plaque area expressed as percent of IWA,ApoE/LDLR−/− mice [1]; high dose 10 mg/kg b.w./day,did not change
same,plaque size compared with non-treated mice,ApoE/LDLR−/− mice [1]; high dose 10 mg/kg b.w./day,not different
same,decrease in vessel wall area (VWA),ApoE/LDLR−/− mice [1]; high dose 10 mg/kg b.w./day,about 5%
same,lumen area expressed as percent of IWA,ApoE/LDLR−/− mice [1]; low dose 0.03 mg/kg b.w./day,did not change
same,plaque area expressed as percent of IWA,ApoE/LDLR−/− mice [1]; low dose 0.03 mg/kg b.w./day,did not change
same,plaque size compared with non-treated mice,ApoE/LDLR−/− mice [1]; low dose 0.03 mg/kg b.w./day,not different
same,decrease in vessel wall area (VWA),ApoE/LDLR−/− mice [1]; low dose 0.03 mg/kg b.w./day,about 5%
same,internal wall area (IWA),"ApoE/LDLR−/− mice [1]; lower dose, data not shown, not visible for entire vessel",decreased only in the middle part of the vessel
same,concentration of NO3− in plasma,ApoE/LDLR−/− mice [2]; 0.03 mg/kg b.w./day,did not change significantly
same,concentration of NO3− in plasma,ApoE/LDLR−/− mice [2]; 10 mg/kg b.w./day,did not change significantly
same,"K1 2,3-epoxide plasma concentration",[3],tent to decrease
same,vitamin K1 plasma concentration,[3],tent to decrease
same,"concentration of MK4 2,3-epoxide in plasma",[3]; 5 mg/kg/day,maintained at similar level
same,plasma concentration of K2 (MK-7),[3]; 5 mg/kg/day,dose-dependent increase
same,plasma concentration of MK-4,[3]; 5 mg/kg/day,dose-dependent increase
same,volume change of LCA after Ach injection,ApoE/LDLR−/− mice [4],~−3%
same,thrombin generation,thrombin generation; 0.03 mg/kg b.w./day,did not affect
same,thrombin generation,thrombin generation; 10 mg/kg b.w./day,did not affect

# — patent publication US11911349B2, “Rapidly improving vascular conditions by administering vitamin K” (NATTOPHARMA AS, priority 2018, dated 2024)
